Like-named read-outs stand apart in the source and are kept apart here.
Target: T1, OX1 (Homo sapiens, UniProt O43613)
T1 construct: expressed in transfected cells; host or cells: CHO (CHO-OX1, kept under selection antibiotic)
T1 sequence (O43613 1-425): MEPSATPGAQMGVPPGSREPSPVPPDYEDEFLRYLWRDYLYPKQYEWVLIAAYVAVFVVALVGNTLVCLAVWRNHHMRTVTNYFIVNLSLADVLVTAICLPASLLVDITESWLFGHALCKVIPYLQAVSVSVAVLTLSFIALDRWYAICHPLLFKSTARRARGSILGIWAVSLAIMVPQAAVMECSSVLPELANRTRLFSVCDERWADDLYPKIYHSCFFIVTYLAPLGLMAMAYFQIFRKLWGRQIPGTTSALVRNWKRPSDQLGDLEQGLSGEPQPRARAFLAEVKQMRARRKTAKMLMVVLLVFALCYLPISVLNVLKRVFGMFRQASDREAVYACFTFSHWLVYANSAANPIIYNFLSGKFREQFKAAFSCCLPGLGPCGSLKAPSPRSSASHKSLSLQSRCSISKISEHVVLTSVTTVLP
Experiment: Orexin receptor cell-based functional assay, [Ca2+]i by FLIPR, CHO-OX1 cells
Conditions: CHO-OX1 cells, EC90 of OXA
Protocol: Measurement of [Ca^2+]i using a FLIPR: CHO—OX1 or CHO—OX2 cells are seeded into black-walled clear-base 384-well plates (Costar) at a density of 20,000 cells per well in F12-K medium supplemented with 10% FBS and selection antibiotic (500 ug/ml G418 or 15 ug/ml Blasticidin) and cultured overnight. The cells are incubated with equal volume of calcium4 loading buffer (Molecular Devices, Inc.) containing 2.5 mM probenecid at 37° C. for 30 min, followed by putative OX1 or OX2 receptor antagonists (dose-range 0.1 nM-10 μM) for another 30 min.
The cells are incubated with equal volume of calcium6 loading buffer (Molecular Devices, Inc.) containing 2.5 mM probenecid at 37° C. for 2 h, followed by test compounds (dose-range 0.1 nM-10 μM) for another 30 min.

[1] = [Ca2+]i by FLIPR, antagonist dose-range 0.1 nM-10 μM, read-out: OX1
[2] = Table 2, read-out: IC50 Bioactivity OX1

For `Cc1ccc(-c2cccnc2)c(C(=O)N2CCC[C@@H](C)[C@H]2CNc2ncc(Cl)cn2)n1` [Example A222, ((2S,3R)-2-(((5-Chloropyrimidin-2-yl)amino)methyl)-3-methylpiperidin-1-yl)(6-methyl-[3,3′-bipyridin]-2-yl)methanone], the IC50 [1] was 82 nM.

For `Cc1nc(C(=O)N2CC(O)CCC2CNC(=O)c2cccc3cccnc23)c(-c2cccc(F)c2)s1` (racemic) [Example 51, N-((1-(5-(3-Fluorophenyl)-2-methylthiazole-4-carbonyl)-5-hydroxypiperidin-2-yl)methyl)quinoline-8-carboxamide], the IC50 [2] was 10 nM.

With `Cc1nc(C(=O)N2CCC[C@@H](C(C)C)[C@H]2CNc2nc3ccccc3o2)c(-c2ccc(F)cc2)s1` (racemic) [Example 84, rac-cis-((2S,3S)-2-((Benzo[d]oxazol-2-ylamino)methyl)-3-isopropylpiperidin-1-yl)(5-(4-fluorophenyl)-2-methylthiazol-4-yl)methanone] the IC50 [2] was 35 nM.

`Cc1nc(-c2ccccc2)c(C(=O)N2C(C)CCCC2CNC(=O)c2cccc3cccnc23)s1` (racemic) [Example 29, rac-N-((6-Methyl-1-(2-methyl-4-phenylthiazole-5-carbonyl)piperidin-2-yl)methyl)quinoline-8-carboxamide] gave an IC50 [2] of 200 nM.

`O=C1C[C@@H](CNC(=O)c2cccc3cccnc23)N(C(=O)c2ccccc2-c2ccccc2)C1` [Example 6, (S)—N-((1-(Biphenylcarbonyl)-4-oxopyrrolidin-2-yl)methyl)quinoline-8-carboxamide] showed an IC50 [2] of 30 nM.

Work on `CNC1CCC(CNC(=O)c2cccc3cccnc23)N(C(=O)c2ccccc2-c2ccccc2)C1` (racemic) [Example 49, N-((1-(Biphenylcarbonyl)-5-(methylamino)piperidin-2-yl)methyl)quinoline-8-carboxamide] yielded an IC50 [2] of 25 nM.

For `Cc1ccc(-c2cccnc2)c(C(=O)N2CCC[C@@H](C)[C@H]2CNc2ccc(C(F)(F)F)cn2)c1` (racemic) [Example 104, rac-cis-(3-Methyl-2-(((5-(trifluoromethyl)pyridin-2-yl)amino)methyl)piperidin-1-yl) (5-methyl-2-(pyridin-3-yl)phenyl)methanone], the IC50 [2] was 1 nM.

Work on `Cc1ccc(-c2ccc(C)nc2)c(C(=O)N2CCC[C@@H](C)[C@H]2CNc2ccc(C(F)(F)F)cn2)c1` (racemic) [Example 105, rac-cis-(3-Methyl-2-(((5-(trifluoromethyl)pyridin-2-yl)amino)methyl)piperidin-1-yl)(5-methyl-2-(6-methylpyridin-3-yl)phenyl)methanone] yielded an IC50 [2] of 109 nM.

In the case of `Cc1nc(C(=O)N2CC3CCCCC3C2CNC(=O)c2cccc3occc23)c(-c2ccccc2)s1` (single isomer, unassigned) [Example 71], the IC50 [2] is reported as 40 nM.

`Cc1nc(C(=O)N2CCC[C@@H](C)[C@H]2CNc2cccc(C(F)(F)F)n2)c(-c2ccc(F)cc2)s1` (racemic) [Example 87, rac-cis-(3-Methyl-2-(((6-(trifluoromethyl)pyridin-2-yl)amino)methyl)piperidin-1-yl) (5-(4-fluorophenyl)-2-methylthiazol-4-yl)methanone] showed an IC50 [2] of 220 nM.

In the case of `C[C@@H]1CCCN(C(=O)c2ccc(F)cc2-n2nccn2)[C@@H]1CNc1ncc(C(F)(F)F)cn1` [Example A251, (4-Fluoro-2-(2H-1,2,3-triazol-2-yl)phenyl)((2S,3R)-3-methyl-2-(((5-(trifluoromethyl)pyrimidin-2-yl)amino)methyl)piperidin-1-yl)methanone], the IC50 [1] is reported as 58 nM.

Molecule `Cc1ccc(-c2cncnc2)c(C(=O)N2CCC[C@@H](C)[C@H]2CNc2ccc(C(F)(F)F)cn2)c1` (racemic) [Example 107, rac-cis-(3-Methyl-2-(((5-(trifluoromethyl)pyridin-2-yl)amino)methyl)piperidin-1-yl) (5-methyl-2-(pyrimidin-5-yl)phenyl)methanone] has an IC50 [2] of 78 nM.

With `Cc1nc(C(=O)N2CCC[C@@H](C)[C@H]2CNc2nc3ccccc3s2)c(-c2ccc(F)cc2)s1` (racemic) [Example 72, rac-cis-(2-((Benzo[d]thiazol-2-ylamino)methyl)-3-methylpiperidin-1-yl)(5-(4-fluorophenyl)-2-methylthiazol-4-yl)methanone] the IC50 [2] was 6 nM.

For `COc1c(F)cccc1C(=O)N1CCC[C@@H](C)[C@H]1CNc1ccc(C(F)(F)F)cn1` [Example A75, (3-Fluoro-2-methoxyphenyl)((2S,3R)-3-methyl-2-(((5-(trifluoromethyl)pyridin-2-yl)amino)methyl)piperidin-1-yl)methanone], the IC50 [1] was 1300 nM.

`Cc1nc(C(=O)N2CCC[C@@H](C)[C@H]2CNc2ncc(Cl)cn2)c(-c2ccc(F)cc2)s1` (racemic) [Example 82, rac-cis-(2-(((5-Chloropyrimidin-2-yl)amino)methyl)-3-methylpiperidin-1-yl)(5-(4-fluorophenyl)-2-methylthiazol-4-yl)methanone] was tested, and the IC50 [2] was 4 nM.

Work on `C[C@@H]1CCCN(C(=O)c2ccccc2OC(F)(F)F)[C@@H]1CNc1ncc(Cl)cn1` (racemic) [Example 122, rac-cis-(2-(((5-Chloropyrimidin-2-yl)amino)methyl)-3-methylpiperidin-1-yl)(2-(trifluoromethoxy)phenyl)methanone] yielded an IC50 [2] of 3500 nM.

Work on `Cc1nc(C(=O)N2CCC[C@@H](C)[C@H]2CNc2cncc(Cl)n2)c(-c2ccc(F)cc2)s1` (racemic) [Example 123, rac-cis-(2-(((6-Chloropyrazin-2-yl)amino)methyl)-3-methylpiperidin-1-yl)(5-(4-fluorophenyl)-2-methylthiazol-4-yl)methanone] yielded an IC50 [2] of 3600 nM.

In the case of `Cc1ccc(-c2ncccn2)c(C(=O)N2CCC[C@@H](C)[C@H]2CNc2ccc(C(F)(F)F)cn2)c1` (racemic) [Example 112, rac-cis-(3-Methyl-2-(((5-(trifluoromethyl)pyridin-2-yl)amino)methyl)piperidin-1-yl)(5-methyl-2-(pyrimidin-2-yl)phenyl)methanone], the IC50 [2] is reported as 17 nM.

For `Cc1nc(C(=O)N2CCC[C@@H](C(F)(F)F)[C@H]2CNc2ccc(C(F)(F)F)cn2)c(-c2ccccc2)s1` (racemic) [Example 14, rac-cis-(2-Methyl-5-phenylthiazol-4-yl)(3-(trifluoromethyl)-2-(((5-(trifluoromethyl)pyridin-2-yl)amino)methyl)piperidin-1-yl)methanone], the IC50 [2] was 9 nM.

For `Cc1nc(C(=O)N2CCC[C@@H](C)[C@H]2COc2nc3ccccc3o2)c(-c2ccc(F)cc2)s1` (racemic) [Example 80, rac-cis-(2-((Benzo[d]oxazol-2-yloxy)methyl)-3-methylpiperidin-1-yl)(5-(4-fluorophenyl)-2-methylthiazol-4-yl)methanone], the IC50 [2] was 140 nM.

Molecule `Cc1ccc(NC[C@@H]2[C@H](C)CCCN2C(=O)c2cc(C)ccc2-c2cnn(C)c2)nc1` [Example A49, ((2S,3R)-3-Methyl-2-(((5-methylpyridin-2-yl)amino)methyl)piperidin-1-yl)(5-methyl-2-(1-methyl-1H-pyrazol-4-yl)phenyl)methanone] has an IC50 [1] of 500 nM.

`Cc1ccc(-c2ccccn2)c(C(=O)N2CCC[C@@H](C)[C@H]2CNc2ccc(F)cn2)c1` [Example A58, ((2S,3R)-2-(((5-Fluoropyridin-2-yl)amino)methyl)-3-methylpiperidin-1-yl)(5-methyl-2-(pyridin-2-yl)phenyl)methanone] was tested, and the IC50 [1] was 230 nM.

For `Cc1cc2c(C(=O)NCC3CCC(F)(F)CN3C(=O)c3nc(C)sc3-c3ccc(F)cc3)cccc2o1` (racemic) [Example 57, rac-N-((5,5-Difluoro-1-(5-(4-fluorophenyl)-2-methylthiazole-4-carbonyl)piperidin-2-yl)methyl)-2-methylbenzofuran-4-carboxamide], the IC50 [2] was < 100 nM.

With `O=C(NCC1CCC(F)CN1C(=O)c1ccccc1-c1ccccc1)c1cccc2cccnc12` (single isomer, unassigned) [Example 37, N-((1-(Biphenylcarbonyl)-5-fluoropiperidin-2-yl)methyl)quinoline-8-carboxamide] the IC50 [2] was 1 nM.

With `Cc1ccc(-c2ccccn2)c(C(=O)N2CCC[C@@H](C)[C@H]2CNc2ccc(C(F)(F)F)cn2)n1` [Example A217, ((2S,3R)-3-Methyl-2-(((5-(trifluoromethyl)pyridin-2-yl)amino)methyl)piperidin-1-yl)(6′-methyl-[2,3′-bipyridin]-2′-yl)methanone] the IC50 [1] was 150 nM.

With `Cc1nc(-c2ccccc2)c(C(=O)N2CCC(F)(F)[C@H]2CNC(=O)c2cccc3cccnc23)s1` [Example 133, (R)—N-((3,3-Difluoro-1-(2-methyl-4-phenylthiazole-5-carbonyl)pyrrolidin-2-yl)methyl)quinoline-8-carboxamide] the IC50 [2] was 12 nM.

`Cc1ccc(-c2ccncc2)c(C(=O)N2CCC[C@@H](C)[C@H]2CNc2ccc(C(F)(F)F)cn2)c1` (racemic) [Example 106, rac-cis-(3-Methyl-2-(((5-(trifluoromethyl)pyridin-2-yl)amino)methyl)piperidin-1-yl)(5-methyl-2-(pyridin-4-yl)phenyl)methanone] gave an IC50 [2] of 40 nM.
